What was measured:
[1] = system: Fibroblast growth factor receptor 3 (Homo sapiens), P22607 [G697C]; settings: Compound concentration 1000.0 nM
[2] = target: Myosin light chain kinase family member 4 (Homo sapiens) (UniProt Q86YV6); settings: Compound concentration 1000.0 nM
[3] = target: Serine/threonine-protein kinase PRP4 homolog (Homo sapiens) (UniProt Q13523); settings: Compound concentration 1000.0 nM
[4] = target: Dual specificity mitogen-activated protein kinase kinase 5 (Homo sapiens) (UniProt Q13163); settings: Compound concentration 1000.0 nM
[5] = target: T1, Alpha-2A adrenergic receptor (Homo sapiens) (UniProt P08913); settings: Compound concentration 10.0 uM
T1 sequence (whole entry): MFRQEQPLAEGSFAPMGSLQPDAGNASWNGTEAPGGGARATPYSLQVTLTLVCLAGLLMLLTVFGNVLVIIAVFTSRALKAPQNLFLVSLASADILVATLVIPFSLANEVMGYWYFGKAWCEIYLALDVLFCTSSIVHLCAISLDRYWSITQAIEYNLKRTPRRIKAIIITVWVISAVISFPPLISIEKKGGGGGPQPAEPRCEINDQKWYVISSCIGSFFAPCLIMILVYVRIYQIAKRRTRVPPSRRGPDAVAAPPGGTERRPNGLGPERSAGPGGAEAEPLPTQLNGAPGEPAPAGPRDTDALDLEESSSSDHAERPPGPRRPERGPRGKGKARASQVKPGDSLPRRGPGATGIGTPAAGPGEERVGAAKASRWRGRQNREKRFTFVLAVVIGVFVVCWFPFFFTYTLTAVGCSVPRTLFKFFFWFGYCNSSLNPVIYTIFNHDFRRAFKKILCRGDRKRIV

[6] = system: Receptor-type tyrosine-protein kinase FLT3 (Homo sapiens), P36888 [D835H]; settings: Compound concentration 1000.0 nM
[7] = target: Platelet-derived growth factor receptor beta (Homo sapiens) (UniProt P09619); settings: Compound concentration 1000.0 nM
[8] = target: Beta-adrenergic receptor kinase 1 (Homo sapiens) (UniProt P25098); settings: Compound concentration 1000.0 nM
[9] = target: Protein-tyrosine kinase 2-beta (Homo sapiens) (UniProt Q14289); settings: Compound concentration 1000.0 nM
[10] = target: Calcium/calmodulin-dependent protein kinase type II subunit alpha (Homo sapiens) (UniProt Q9UQM7); settings: Compound concentration 1000.0 nM
[11] = target: SRSF protein kinase 2 (Homo sapiens) (UniProt P78362); settings: Compound concentration 1000.0 nM
[12] = target: Glycogen synthase kinase-3 alpha (Homo sapiens) (UniProt P49840); settings: Compound concentration 1000.0 nM
[13] = target: Cyclin-dependent kinase 4 (Homo sapiens) (UniProt P11802); settings: Compound concentration 1000.0 nM
Cyclin-dependent kinase 4 (Homo sapiens), sequence (P11802 whole entry): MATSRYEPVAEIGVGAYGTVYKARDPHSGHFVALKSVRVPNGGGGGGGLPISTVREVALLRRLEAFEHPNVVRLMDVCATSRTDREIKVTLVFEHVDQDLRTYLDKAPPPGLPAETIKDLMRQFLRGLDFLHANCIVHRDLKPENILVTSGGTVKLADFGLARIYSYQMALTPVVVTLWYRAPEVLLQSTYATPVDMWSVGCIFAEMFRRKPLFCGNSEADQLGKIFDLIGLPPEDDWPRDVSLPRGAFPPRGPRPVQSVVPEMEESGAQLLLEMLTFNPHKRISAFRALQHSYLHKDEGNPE

[14] = target: Death-associated protein kinase 3 (Homo sapiens) (UniProt O43293); settings: Compound concentration 1000.0 nM
[15] = target: Cyclin-dependent kinase 9 (Homo sapiens) (UniProt P50750); settings: Compound concentration 1000.0 nM
Cyclin-dependent kinase 9 (Homo sapiens), sequence (P50750 whole entry): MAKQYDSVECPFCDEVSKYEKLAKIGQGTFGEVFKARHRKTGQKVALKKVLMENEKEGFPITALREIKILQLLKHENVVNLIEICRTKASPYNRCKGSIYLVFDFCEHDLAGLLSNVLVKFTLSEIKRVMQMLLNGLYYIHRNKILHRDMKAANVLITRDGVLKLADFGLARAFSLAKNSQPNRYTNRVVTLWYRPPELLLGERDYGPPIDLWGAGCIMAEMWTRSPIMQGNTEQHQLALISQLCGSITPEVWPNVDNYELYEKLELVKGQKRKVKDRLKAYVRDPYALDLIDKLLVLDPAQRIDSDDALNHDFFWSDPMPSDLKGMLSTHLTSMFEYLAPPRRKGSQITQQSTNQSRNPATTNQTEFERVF

[16] = target: Protein-tyrosine kinase 6 (Homo sapiens) (UniProt Q13882); settings: Compound concentration 1000.0 nM
[17] = target: Serine/threonine-protein kinase N1 (Homo sapiens) (UniProt Q16512); settings: Compound concentration 1000.0 nM
Serine/threonine-protein kinase N1 (Homo sapiens), sequence (Q16512 2-942 limits assumed): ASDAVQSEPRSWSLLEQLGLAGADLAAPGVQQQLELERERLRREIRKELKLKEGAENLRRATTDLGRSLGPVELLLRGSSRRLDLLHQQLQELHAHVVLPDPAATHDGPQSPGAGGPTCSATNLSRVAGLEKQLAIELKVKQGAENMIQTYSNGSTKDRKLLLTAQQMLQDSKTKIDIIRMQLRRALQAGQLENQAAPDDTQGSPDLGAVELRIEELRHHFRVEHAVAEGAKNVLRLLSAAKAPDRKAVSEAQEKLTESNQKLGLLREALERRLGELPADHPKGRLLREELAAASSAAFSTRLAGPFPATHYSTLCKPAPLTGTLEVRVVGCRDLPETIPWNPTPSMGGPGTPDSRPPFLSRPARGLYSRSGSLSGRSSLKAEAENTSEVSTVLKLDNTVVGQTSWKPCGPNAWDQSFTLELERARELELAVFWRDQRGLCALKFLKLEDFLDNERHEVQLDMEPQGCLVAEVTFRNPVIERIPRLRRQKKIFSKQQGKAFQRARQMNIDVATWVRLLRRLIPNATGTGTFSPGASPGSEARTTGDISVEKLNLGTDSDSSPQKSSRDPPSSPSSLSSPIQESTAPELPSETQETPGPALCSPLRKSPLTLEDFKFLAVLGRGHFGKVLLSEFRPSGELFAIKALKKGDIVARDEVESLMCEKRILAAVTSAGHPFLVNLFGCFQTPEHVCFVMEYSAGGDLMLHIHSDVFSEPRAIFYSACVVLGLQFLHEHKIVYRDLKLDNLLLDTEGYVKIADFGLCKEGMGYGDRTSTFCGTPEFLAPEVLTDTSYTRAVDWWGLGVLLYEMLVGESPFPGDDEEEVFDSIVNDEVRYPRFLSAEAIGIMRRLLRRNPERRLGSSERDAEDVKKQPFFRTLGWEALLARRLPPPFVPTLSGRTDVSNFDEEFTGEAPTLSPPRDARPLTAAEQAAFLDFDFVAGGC

[18] = target: cAMP-dependent protein kinase catalytic subunit alpha (Homo sapiens) (UniProt P17612); settings: Compound concentration 1000.0 nM
[19] = target: Calcium-dependent protein kinase 1 (Plasmodium falciparum) (UniProt P62344); settings: Compound concentration 1000.0 nM
[20] = system: Epidermal growth factor receptor (Homo sapiens), P00533 [UNDEFINED MUTATION]; settings: Compound concentration 1000.0 nM
Epidermal growth factor receptor (Homo sapiens), P00533 [UNDEFINED MUTATION], sequence (P00533 whole entry, looked up, change not shown): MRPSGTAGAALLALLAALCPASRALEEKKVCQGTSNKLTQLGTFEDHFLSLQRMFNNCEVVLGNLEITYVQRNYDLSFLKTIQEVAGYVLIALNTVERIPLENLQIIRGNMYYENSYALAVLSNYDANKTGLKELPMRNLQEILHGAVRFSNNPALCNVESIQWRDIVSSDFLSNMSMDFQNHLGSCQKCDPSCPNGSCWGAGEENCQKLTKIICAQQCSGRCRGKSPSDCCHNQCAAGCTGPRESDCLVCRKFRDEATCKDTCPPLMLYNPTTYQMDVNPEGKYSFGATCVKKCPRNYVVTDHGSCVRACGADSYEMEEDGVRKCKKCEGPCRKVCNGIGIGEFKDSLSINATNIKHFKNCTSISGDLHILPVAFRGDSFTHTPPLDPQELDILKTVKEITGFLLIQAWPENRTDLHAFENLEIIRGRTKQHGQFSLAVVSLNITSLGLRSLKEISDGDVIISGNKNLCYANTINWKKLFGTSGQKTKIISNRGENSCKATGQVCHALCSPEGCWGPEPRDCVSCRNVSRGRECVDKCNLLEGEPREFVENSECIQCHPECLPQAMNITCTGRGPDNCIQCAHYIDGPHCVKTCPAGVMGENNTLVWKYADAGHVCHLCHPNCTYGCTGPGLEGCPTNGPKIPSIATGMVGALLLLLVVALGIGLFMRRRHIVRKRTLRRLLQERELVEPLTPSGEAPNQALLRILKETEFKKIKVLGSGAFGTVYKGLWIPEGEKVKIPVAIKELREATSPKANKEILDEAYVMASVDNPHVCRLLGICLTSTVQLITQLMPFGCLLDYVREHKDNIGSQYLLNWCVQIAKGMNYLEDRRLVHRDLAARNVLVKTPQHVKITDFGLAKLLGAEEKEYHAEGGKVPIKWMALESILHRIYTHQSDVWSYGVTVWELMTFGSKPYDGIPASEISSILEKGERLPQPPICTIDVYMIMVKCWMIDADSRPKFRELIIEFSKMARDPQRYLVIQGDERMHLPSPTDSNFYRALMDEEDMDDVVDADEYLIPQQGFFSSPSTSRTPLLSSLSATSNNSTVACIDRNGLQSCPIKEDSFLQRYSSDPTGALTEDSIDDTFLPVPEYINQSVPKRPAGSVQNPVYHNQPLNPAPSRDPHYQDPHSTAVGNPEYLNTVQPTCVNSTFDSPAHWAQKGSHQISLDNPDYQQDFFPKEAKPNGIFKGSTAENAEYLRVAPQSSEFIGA

[21] = target: Megakaryocyte-associated tyrosine-protein kinase (Homo sapiens) (UniProt P42679); settings: Compound concentration 1000.0 nM
[22] = target: Serine/threonine-protein kinase PLK1 (Homo sapiens) (UniProt P53350); settings: Compound concentration 1000.0 nM
[23] = system: Epidermal growth factor receptor (Homo sapiens), P00533 [UNDEFINED MUTATION]; settings: Compound concentration 1000.0 nM; remark: listed apart in the source
[24] = target: Serine/threonine-protein kinase TAO3 (Homo sapiens) (UniProt Q9H2K8); settings: Compound concentration 1000.0 nM
[25] = target: Protein kinase C theta type (Homo sapiens) (UniProt Q04759); settings: Compound concentration 1000.0 nM
[26] = target: Bone morphogenetic protein receptor type-1B (Homo sapiens) (UniProt O00238); settings: Compound concentration 1000.0 nM
[27] = system: Tyrosine-protein kinase ABL1 (Homo sapiens), P00519 [F317I]; settings: Compound concentration 1000.0 nM
[28] = target: Calcium/calmodulin-dependent protein kinase type II subunit beta (Homo sapiens) (UniProt Q13554); settings: Compound concentration 1000.0 nM
[29] = target: Activin receptor type-1B (Homo sapiens) (UniProt P36896); settings: Compound concentration 1000.0 nM
[30] = target: Death-associated protein kinase 2 (Homo sapiens) (UniProt Q9UIK4); settings: Compound concentration 1000.0 nM
[31] = system: Tyrosine-protein kinase ABL1 (Homo sapiens), P00519 [F317I]; settings: Compound concentration 1000.0 nM; remark: listed apart in the source
[32] = system: Receptor-type tyrosine-protein kinase FLT3 (Homo sapiens), P36888 [N841I]; settings: Compound concentration 1000.0 nM
[33] = system: Phosphatidylinositol 4,5-bisphosphate 3-kinase catalytic subunit alpha isoform (Homo sapiens), P42336 [H1047Y]; settings: Compound concentration 1000.0 nM
Phosphatidylinositol 4,5-bisphosphate 3-kinase catalytic subunit alpha isoform (Homo sapiens), P42336 [H1047Y], sequence (P42336 whole entry H1047Y, canonical isoform): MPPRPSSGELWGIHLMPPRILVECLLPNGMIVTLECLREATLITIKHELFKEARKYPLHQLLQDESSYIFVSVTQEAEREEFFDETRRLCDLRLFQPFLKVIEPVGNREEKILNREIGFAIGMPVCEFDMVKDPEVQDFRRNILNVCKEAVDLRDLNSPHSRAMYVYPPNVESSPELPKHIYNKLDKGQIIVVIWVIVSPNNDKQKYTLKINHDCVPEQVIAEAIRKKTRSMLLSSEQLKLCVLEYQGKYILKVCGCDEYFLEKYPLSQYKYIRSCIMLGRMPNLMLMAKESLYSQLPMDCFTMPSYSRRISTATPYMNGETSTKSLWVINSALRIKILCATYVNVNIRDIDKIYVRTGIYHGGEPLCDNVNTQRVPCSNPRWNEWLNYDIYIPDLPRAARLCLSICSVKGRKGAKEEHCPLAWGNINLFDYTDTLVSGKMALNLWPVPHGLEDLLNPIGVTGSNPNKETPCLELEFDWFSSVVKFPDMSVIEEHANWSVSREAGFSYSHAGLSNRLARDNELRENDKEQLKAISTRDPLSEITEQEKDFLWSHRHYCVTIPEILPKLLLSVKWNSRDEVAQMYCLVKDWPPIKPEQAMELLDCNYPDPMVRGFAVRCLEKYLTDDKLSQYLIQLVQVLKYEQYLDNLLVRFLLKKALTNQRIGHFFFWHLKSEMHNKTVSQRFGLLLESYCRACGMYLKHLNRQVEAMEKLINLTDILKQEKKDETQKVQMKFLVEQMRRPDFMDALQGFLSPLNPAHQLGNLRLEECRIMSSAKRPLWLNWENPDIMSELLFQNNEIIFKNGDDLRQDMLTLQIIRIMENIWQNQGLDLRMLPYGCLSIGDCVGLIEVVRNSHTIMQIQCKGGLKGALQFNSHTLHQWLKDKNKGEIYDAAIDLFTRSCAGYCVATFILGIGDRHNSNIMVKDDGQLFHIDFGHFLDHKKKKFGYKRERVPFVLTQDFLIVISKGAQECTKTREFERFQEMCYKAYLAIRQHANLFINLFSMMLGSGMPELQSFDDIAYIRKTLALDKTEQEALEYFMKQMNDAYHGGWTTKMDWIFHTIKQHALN

[34] = system: Tyrosine-protein kinase ABL1 (Homo sapiens), P00519 [T315I]; settings: Compound concentration 1000.0 nM
[35] = target: Dual serine/threonine and tyrosine protein kinase (Homo sapiens) (UniProt Q6XUX3); settings: Compound concentration 1000.0 nM
[36] = target: Tyrosine-protein kinase TXK (Homo sapiens) (UniProt P42681); settings: Compound concentration 1000.0 nM
[37] = target: LIM domain kinase 1 (Homo sapiens) (UniProt P53667); settings: Compound concentration 1000.0 nM
[38] = target: Phosphatidylinositol 4-kinase beta (Homo sapiens) (UniProt Q9UBF8); settings: Compound concentration 1000.0 nM
Phosphatidylinositol 4-kinase beta (Homo sapiens), sequence (Q9UBF8 2-816 limits assumed): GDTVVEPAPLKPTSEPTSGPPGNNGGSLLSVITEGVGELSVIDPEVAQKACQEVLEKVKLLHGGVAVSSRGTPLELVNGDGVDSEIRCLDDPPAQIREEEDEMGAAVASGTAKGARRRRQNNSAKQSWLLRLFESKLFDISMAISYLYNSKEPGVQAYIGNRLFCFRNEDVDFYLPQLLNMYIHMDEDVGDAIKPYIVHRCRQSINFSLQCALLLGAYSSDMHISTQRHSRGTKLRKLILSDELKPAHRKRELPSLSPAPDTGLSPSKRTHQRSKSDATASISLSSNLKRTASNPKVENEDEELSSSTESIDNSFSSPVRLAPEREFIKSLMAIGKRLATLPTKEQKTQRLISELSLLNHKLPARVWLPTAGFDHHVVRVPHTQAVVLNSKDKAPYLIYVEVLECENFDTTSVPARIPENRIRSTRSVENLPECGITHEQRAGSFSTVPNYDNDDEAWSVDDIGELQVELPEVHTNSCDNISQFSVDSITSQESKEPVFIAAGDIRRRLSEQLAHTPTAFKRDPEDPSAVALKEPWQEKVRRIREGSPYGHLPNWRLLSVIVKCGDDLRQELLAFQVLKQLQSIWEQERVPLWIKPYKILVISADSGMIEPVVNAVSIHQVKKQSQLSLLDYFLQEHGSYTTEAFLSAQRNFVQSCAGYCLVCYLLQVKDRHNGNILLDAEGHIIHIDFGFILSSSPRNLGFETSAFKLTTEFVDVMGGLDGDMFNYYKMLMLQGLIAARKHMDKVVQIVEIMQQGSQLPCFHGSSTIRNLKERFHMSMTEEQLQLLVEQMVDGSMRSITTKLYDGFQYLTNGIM

[39] = system: Epidermal growth factor receptor (Homo sapiens), P00533 [UNDEFINED MUTATION]; settings: Compound concentration 1000.0 nM; remark: listed apart in the source

O=C(Nc1ccc(Oc2ccc(F)cc2)cc1)N1CCc2ncccc2[C@H]1c1ccc(F)cc1 [BAY-897]
inactive: residual activity [1] 100% | residual activity [2] 97% | residual activity [3] 100% | residual activity [4] 81% | inhibition [5] 7.16% | residual activity [6] 86% | residual activity [7] 100% | residual activity [8] 92% | residual activity [9] 89% | residual activity [10] 88% | residual activity [11] 100% | residual activity [12] 95% | residual activity [13] 100% | residual activity [14] 100% | residual activity [15] 87% | residual activity [16] 100% | residual activity [17] 100% | residual activity [18] 95% | residual activity [19] 96% | residual activity [20] 100% | residual activity [21] 90% | residual activity [22] 78% | residual activity [23] 92% | residual activity [24] 92% | residual activity [25] 95% | residual activity [26] 87% | residual activity [27] 100% | residual activity [28] 100% | residual activity [29] 94% | residual activity [30] 100% | residual activity [31] 94% | residual activity [32] 93% | residual activity [33] 100% | residual activity [34] 98% | residual activity [35] 100% | residual activity [36] 100% | residual activity [37] 85% | residual activity [38] 75% | residual activity [39] 100%

O=C(Nc1cnc(Oc2ccc(F)cc2)nc1)N1CCc2ncccc2[C@@H]1c1ccc(F)cc1 [BAY-899]
inactive: residual activity [1] 89% | residual activity [2] 88% | residual activity [3] 90% | residual activity [4] 83% | inhibition [5] 9.77% | residual activity [6] 100% | residual activity [7] 100% | residual activity [8] 90% | residual activity [9] 100% | residual activity [10] 92% | residual activity [11] 100% | residual activity [12] 93% | residual activity [13] 100% | residual activity [14] 100% | residual activity [15] 93% | residual activity [16] 98% | residual activity [17] 95% | residual activity [18] 82% | residual activity [19] 95% | residual activity [20] 100% | residual activity [21] 80% | residual activity [22] 80% | residual activity [23] 86% | residual activity [24] 100% | residual activity [25] 94% | residual activity [26] 98% | residual activity [27] 100% | residual activity [28] 92% | residual activity [29] 100% | residual activity [30] 91% | residual activity [31] 99% | residual activity [32] 88% | residual activity [33] 100% | residual activity [34] 100% | residual activity [35] 100% | residual activity [36] 87% | residual activity [37] 99% | residual activity [38] 89% | residual activity [39] 100%

— ChEMBL document CHEMBL4507317, “Data for DCP probe BAY-899” (2021)
